According to PubChem BioAssay (NCI):
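Results reflect a 48-hour exposure of cells in 96-well plates to compound at five concentrations. Abbreviation: GI50, concentration required for 50% inhibition of growth. TGI marks complete inhibition of growth.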

What was measured:
Experiment in all cases: NCI anticancer screen, dose series, 48 h
A549 NSCLC = system: A549 NSCLC
HCT-116 colon = system: HCT-116 colon
KM12 colon = system: KM12 colon
LOX IMVI melanoma = system: LOX IMVI melanoma
NCI-H522 lung = system: NCI-H522 lung
RXF 393 renal = system: RXF 393 renal
SF-268 CNS = system: SF-268 CNS
SF-539 CNS = system: SF-539 CNS
SK-MEL-5 melanoma = system: SK-MEL-5 melanoma
SNB-19 CNS = system: SNB-19 CNS

Compound `O=C1C(Cl)=C(Nc2ccc3cn[nH]c3c2)C(=O)c2ccccc21` has a GI50 (A549 NSCLC) of 2.38 µM, a TGI (A549 NSCLC) of 5.86 µM and a GI50 (HCT-116 colon) of 1.43 µM. For the same compound, the TGI (HCT-116 colon) was 2.78 µM, the GI50 (KM12 colon) was 3.23 µM and the TGI (KM12 colon) was 14.7 µM. It also gave a GI50 (LOX IMVI melanoma) of 0.562 µM, a TGI (LOX IMVI melanoma) of 1.92 µM and a GI50 (NCI-H522 lung) of 1.55 µM. For the same compound, the TGI (NCI-H522 lung) was 2.94 µM, the GI50 (RXF 393 renal) was 1.54 µM and the TGI (RXF 393 renal) was 2.92 µM. For the same compound, the GI50 (SF-268 CNS) was 1.63 µM, the TGI (SF-268 CNS) was 3 µM and the GI50 (SF-539 CNS) was 1.81 µM. It also gave a TGI (SF-539 CNS) of 3.2 µM, a GI50 (SK-MEL-5 melanoma) of 0.308 µM and a TGI (SK-MEL-5 melanoma) of 1.26 µM. For the same compound, the GI50 (SNB-19 CNS) was 1.66 µM and the TGI (SNB-19 CNS) was 3.33 µM.
`CCCCCCCCCCCCCC/C(C(=O)OC)=C(/O)C(=O)OCC` was tested, and the TGI (A549 NSCLC) was 64.9 µM, the TGI (HCT-116 colon) was greater than 100 µM and the TGI (KM12 colon) was 59.8 µM. The TGI (LOX IMVI melanoma) was 39.3 µM, the TGI (NCI-H522 lung) was greater than 100 µM and the TGI (RXF 393 renal) was greater than 100 µM. The TGI (SF-268 CNS) was 64.3 µM, the TGI (SF-539 CNS) was greater than 100 µM and the TGI (SK-MEL-5 melanoma) was greater than 100 µM. It also gave a TGI (SNB-19 CNS) greater than 100 µM.
`Cc1cc(O)c2c(c1)C(=O)c1cc(O)cc(O)c1C2=O` gave a TGI (A549 NSCLC) greater than 100 µM, a TGI (HCT-116 colon) greater than 58.9 µM and a TGI (KM12 colon) greater than 57.5 µM. For the same compound, the TGI (LOX IMVI melanoma) was 47.3 µM, the TGI (NCI-H522 lung) was greater than 66.3 µM and the TGI (RXF 393 renal) was greater than 100 µM. The TGI (SF-268 CNS) was 97.5 µM, the GI50 (SF-539 CNS) was 54.2 µM and the TGI (SF-539 CNS) was greater than 100 µM. The TGI (SK-MEL-5 melanoma) was 24.4 µM and the TGI (SNB-19 CNS) was greater than 100 µM.
In the case of `CCOP(=O)(CC(=O)C1=C(O)C(CCCNC(=O)OC(C)(C)C)N(Cc2ccc(OC)c(OC)c2)C1=O)OCC` (stereo unspecified), the TGI (A549 NSCLC) is reported as greater than 100 µM, the TGI (HCT-116 colon) is reported as greater than 100 µM and the TGI (KM12 colon) is reported as greater than 100 µM. The TGI (LOX IMVI melanoma) was greater than 100 µM, the TGI (NCI-H522 lung) was greater than 100 µM and the TGI (RXF 393 renal) was greater than 100 µM. It also gave a TGI (SF-268 CNS) greater than 100 µM, a TGI (SF-539 CNS) greater than 100 µM and a TGI (SK-MEL-5 melanoma) greater than 100 µM. It also gave a TGI (SNB-19 CNS) greater than 100 µM.
With `Cc1cc(S(=O)(=O)Nc2nc3ccsc3c(=O)n2Cc2ccco2)c(S)cc1Cl` the GI50 (A549 NSCLC) was greater than 100 µM, the TGI (A549 NSCLC) was greater than 100 µM and the GI50 (HCT-116 colon) was greater than 100 µM. It also gave a TGI (HCT-116 colon) greater than 100 µM, a GI50 (KM12 colon) greater than 100 µM and a TGI (KM12 colon) greater than 100 µM. For the same compound, the GI50 (LOX IMVI melanoma) was greater than 100 µM, the TGI (LOX IMVI melanoma) was greater than 100 µM and the GI50 (NCI-H522 lung) was greater than 100 µM. For the same compound, the TGI (NCI-H522 lung) was greater than 100 µM, the GI50 (RXF 393 renal) was greater than 100 µM and the TGI (RXF 393 renal) was greater than 100 µM. For the same compound, the GI50 (SF-268 CNS) was 99 µM, the TGI (SF-268 CNS) was greater than 100 µM and the GI50 (SF-539 CNS) was greater than 100 µM. The TGI (SF-539 CNS) was greater than 100 µM, the GI50 (SK-MEL-5 melanoma) was 42.9 µM and the TGI (SK-MEL-5 melanoma) was greater than 100 µM. For the same compound, the GI50 (SNB-19 CNS) was 99 µM and the TGI (SNB-19 CNS) was greater than 100 µM.
With `N#CC1C(=N)Cc2ccccc2-c2ccccc21` (stereo unspecified) the GI50 (A549 NSCLC) was 4.58 µM, the TGI (A549 NSCLC) was greater than 100 µM and the GI50 (HCT-116 colon) was 3.25 µM. It also gave a TGI (HCT-116 colon) of 15.3 µM, a GI50 (KM12 colon) of 3.43 µM and a TGI (KM12 colon) of 16.1 µM. It also gave a GI50 (LOX IMVI melanoma) of 6.26 µM, a TGI (LOX IMVI melanoma) of 33.5 µM and a GI50 (NCI-H522 lung) of 5.72 µM. It also gave a TGI (NCI-H522 lung) of 30.6 µM, a GI50 (RXF 393 renal) of 9.84 µM and a TGI (RXF 393 renal) of 82.9 µM. The GI50 (SF-268 CNS) was 7.7 µM, the TGI (SF-268 CNS) was 51.7 µM and the GI50 (SF-539 CNS) was 3.92 µM. For the same compound, the TGI (SF-539 CNS) was 25.2 µM, the GI50 (SK-MEL-5 melanoma) was 3.35 µM and the TGI (SK-MEL-5 melanoma) was 11.1 µM. For the same compound, the GI50 (SNB-19 CNS) was 9.44 µM and the TGI (SNB-19 CNS) was greater than 100 µM.
`O=C1C=CC(=O)C1(Br)Br` showed a TGI (A549 NSCLC) of 31.7 µM, a TGI (HCT-116 colon) of 20.9 µM and a TGI (KM12 colon) of 29.4 µM. For the same compound, the TGI (LOX IMVI melanoma) was 27.2 µM, the TGI (NCI-H522 lung) was 14.4 µM and the TGI (RXF 393 renal) was 15.9 µM. The TGI (SF-268 CNS) was 37.9 µM, the TGI (SF-539 CNS) was 30.4 µM and the TGI (SK-MEL-5 melanoma) was 34 µM. The TGI (SNB-19 CNS) was 31.8 µM.
Compound `NCCNCC(O)CO` (stereo unspecified) has a TGI (A549 NSCLC) greater than 100 µM, a TGI (HCT-116 colon) greater than 100 µM and a TGI (KM12 colon) greater than 100 µM. For the same compound, the TGI (LOX IMVI melanoma) was greater than 100 µM, the TGI (NCI-H522 lung) was greater than 100 µM and the TGI (RXF 393 renal) was greater than 100 µM. It also gave a TGI (SF-268 CNS) greater than 100 µM, a TGI (SF-539 CNS) greater than 100 µM and a TGI (SK-MEL-5 melanoma) greater than 100 µM. It also gave a TGI (SNB-19 CNS) greater than 100 µM.
With `O=c1cccc(C#Cc2ccccc2)o1` the GI50 (A549 NSCLC) was 11.1 µM, the TGI (A549 NSCLC) was greater than 90.9 µM and the GI50 (HCT-116 colon) was 2.8 µM. For the same compound, the TGI (HCT-116 colon) was 26.2 µM, the GI50 (KM12 colon) was 5.05 µM and the TGI (KM12 colon) was 14.6 µM. It also gave a GI50 (LOX IMVI melanoma) of 7.89 µM, a TGI (LOX IMVI melanoma) of 30.1 µM and a GI50 (NCI-H522 lung) of 4.06 µM. It also gave a TGI (NCI-H522 lung) greater than 40.4 µM, a GI50 (RXF 393 renal) of 6.27 µM and a TGI (RXF 393 renal) of 61.6 µM. The GI50 (SF-268 CNS) was 5.34 µM, the TGI (SF-268 CNS) was greater than 96.7 µM and the GI50 (SF-539 CNS) was 3.72 µM. For the same compound, the TGI (SF-539 CNS) was 27.6 µM, the GI50 (SK-MEL-5 melanoma) was 2.51 µM and the TGI (SK-MEL-5 melanoma) was 9.59 µM. For the same compound, the GI50 (SNB-19 CNS) was 10.5 µM and the TGI (SNB-19 CNS) was 37.6 µM.
`COc1ccc2nc(NCCCNCCO)c3sc4ccc(F)cc4c(=O)c3c2c1` gave a GI50 (A549 NSCLC) of 1.6 µM, a TGI (A549 NSCLC) of 3.64 µM and a GI50 (HCT-116 colon) of 1.47 µM. It also gave a TGI (HCT-116 colon) of 2.86 µM, a GI50 (KM12 colon) of 1.81 µM and a TGI (KM12 colon) of 3.52 µM. For the same compound, the GI50 (LOX IMVI melanoma) was 1.48 µM, the TGI (LOX IMVI melanoma) was 2.9 µM and the GI50 (NCI-H522 lung) was 1.77 µM. The TGI (NCI-H522 lung) was 3.55 µM, the GI50 (RXF 393 renal) was 1.26 µM and the TGI (RXF 393 renal) was 2.61 µM. The GI50 (SF-268 CNS) was 1.45 µM, the TGI (SF-268 CNS) was 3.15 µM and the GI50 (SF-539 CNS) was 1.71 µM. For the same compound, the TGI (SF-539 CNS) was 3.18 µM, the GI50 (SK-MEL-5 melanoma) was 1.73 µM and the TGI (SK-MEL-5 melanoma) was 3.14 µM. The GI50 (SNB-19 CNS) was 1.7 µM and the TGI (SNB-19 CNS) was 3.2 µM.
For `COc1cc2cc(Oc3ccc(NC(=O)Nc4ccccc4)cc3)c(C)nc2cc1OCCN1CCCCC1`, the GI50 (A549 NSCLC) was 7.26 µM, the TGI (A549 NSCLC) was 18.6 µM and the GI50 (HCT-116 colon) was 4.77 µM. The TGI (HCT-116 colon) was 10.1 µM, the GI50 (KM12 colon) was 6.8 µM and the TGI (KM12 colon) was 14.3 µM. For the same compound, the GI50 (LOX IMVI melanoma) was 5.38 µM, the TGI (LOX IMVI melanoma) was 10.1 µM and the GI50 (NCI-H522 lung) was 6.22 µM. It also gave a TGI (NCI-H522 lung) of 13 µM, a GI50 (RXF 393 renal) of 4.42 µM and a TGI (RXF 393 renal) of 8.99 µM. The GI50 (SF-268 CNS) was 5.88 µM, the TGI (SF-268 CNS) was 12.6 µM and the GI50 (SF-539 CNS) was 5.46 µM. For the same compound, the TGI (SF-539 CNS) was 10.3 µM, the GI50 (SK-MEL-5 melanoma) was 5.47 µM and the TGI (SK-MEL-5 melanoma) was 10.1 µM. It also gave a GI50 (SNB-19 CNS) of 5.77 µM and a TGI (SNB-19 CNS) of 11 µM.
